ChEMBL document CHEMBL3301361, “Experimental in vitro DMPK and physicochemical data on a set of publicly disclosed compounds”
Converted amounts (≈) assume the structure as drawn.

assay: physchem; settings: pH 7.4 buffer

Structure (SMILES)	solubility thermodynamic [µM]
Nc1nccc(/C=C/c2ccccc2)n1	190 (≈ 37.6 µg/mL)
Nc1ccc2c(c1)cc(C(=O)O)n2Cc1ccc(Cl)c(Cl)c1	347 (≈ 116 µg/mL)
Nc1nnc(-c2ccccc2F)s1	316 (≈ 61.7 µg/mL)
O=C(Nc1ccccc1)c1cc(-n2cnnc2)ccc1Cl	407 (≈ 122 µg/mL)
COc1ccc(Cc2nnc(N)s2)cc1	363 (≈ 80.3 µg/mL)
CNC(=O)[C@@H](NC(=O)[C@H](CC(C)C)[C@H](OCc1cc2ccccc2n(C)c1=O)C(=O)NO)C(C)(C)C	269 (≈ 135 µg/mL)
Cc1cnc(NC(=O)c2ccccn2)s1	200 (≈ 43.7 µg/mL)
Cc1ccc(-c2cn3cccnc3n2)cc1	251 (≈ 52.6 µg/mL)
CCC(C)(C)NC(=O)Cc1ccc(C)cc1	240 (≈ 52.6 µg/mL)
CC(C)(C)C(O)C(Cc1ccccc1Cl)n1cncn1 (stereo not given)	398 (≈ 117 µg/mL)
CNC(=O)N1c2ccccc2C=Cc2ccccc21	380 (≈ 95.2 µg/mL)
Cn1[nH]c(CSc2ccc(Cl)cc2)cc1=O	468 (≈ 119 µg/mL)
CNC(=O)Cc1ccc2c(=O)cc(-c3cccnc3)[nH]c2c1	457 (≈ 134 µg/mL)
Cc1ccnc(NC(=O)CSc2ccccn2)c1	436 (≈ 113 µg/mL)
O=[N+]([O-])c1ccc(CCl)cc1	501 (≈ 86 µg/mL)
COCC(C)(C)Oc1cc(O[C@@H](C)Cc2ccccc2)cc(C(=O)Nc2ccc(C(=O)O)cn2)c1	190 (≈ 91.2 µg/mL)
Oc1ncnc2c1nnn2Cc1ccccc1	209 (≈ 47.5 µg/mL)
COc1ccc(CNC(=O)c2ccc(Oc3ccc(C#C[C@]4(O)CN5CCC4CC5)cc3)cc2)nc1	347 (≈ 168 µg/mL)

Structure (SMILES)	solubility thermodynamic [µM]
COc1ccc(Cl)c(Nc2ncnc3cc(OCCCN4CCN(C)CC4)cc(OC(C)C)c23)n1	347 (≈ 174 µg/mL)
CC(c1ccccc1)n1cnc2ccccc2c1=O (stereo not given)	468 (≈ 117 µg/mL)
O=C(O)Cc1cccc(-c2ccc(NC(=O)c3nnc(Nc4ccccc4F)o3)cc2)c1	257 (≈ 111 µg/mL)
CNc1nc2ccc(NC(C)=O)cc2s1	347 (≈ 76.7 µg/mL)
Cc1csc(NC(=O)c2ccccc2)n1	331 (≈ 72.3 µg/mL)
O=C(Cc1ccccc1)Nc1ccccc1O	246 (≈ 55.8 µg/mL)
Cc1ccc2nc(C)c(-c3ccnc(N)n3)n2c1	457 (≈ 109 µg/mL)
COc1cc2c(Nc3ccc(Br)cc3F)ncnc2cc1OC/C=C/CN1CCCC1	240 (≈ 117 µg/mL)
COc1cc2c(Nc3cc(CC(=O)Nc4cc(F)cc(F)c4)[nH]n3)ncnc2cc1OCCCN1CCC(CO)CC1	214 (≈ 124 µg/mL)
COc1cc2cc(O)nc(C)c2cc1OC	209 (≈ 45.8 µg/mL)
CNC(=O)[C@@H](NC(=O)[C@H](CC(C)C)[C@H](OCc1cc2c(=O)[nH]c(C)nc2cc1Br)C(=O)NO)C(C)(C)C	457 (≈ 266 µg/mL)
COc1cc2c(Nc3cc(CC(=O)Nc4cccc(F)c4)[nH]n3)ncnc2cc1OCCCNCCO	219 (≈ 111 µg/mL)
Cc1cc(C)c(C(=O)N[C@@H](CNC(=O)CO[C@@H]2C[C@@H](CNc3ccccn3)N(C(=O)OCc3ccccc3)C2)C(=O)O)c(C)c1	389 (≈ 240 µg/mL)
O=C(O)c1cc2cc(F)ccc2n1Cc1ccc(Cl)c(Cl)c1	209 (≈ 70.6 µg/mL)
Nc1nccc(/C=C/c2c(Cl)nc3sccn23)n1	324 (≈ 89.9 µg/mL)
CCSc1nc2c(N)ncnc2[nH]1	436 (≈ 85.2 µg/mL)
COc1ccc(Br)c(C=O)c1O	468 (≈ 108 µg/mL)

Continued, values first:

solubility thermodynamic [µM]	Structure (SMILES)
200 (≈ 62.1 µg/mL)	O=C(c1ccc(F)cc1)C1CCN(C(=O)c2ccccc2)CC1
246 (≈ 75.7 µg/mL)	Cc1ccccc1C(=O)NC1CCN(Cc2ccccc2)CC1
219 (≈ 58.5 µg/mL)	CC(C)Cn1c2ccccc2c2cc(C(=O)O)ccc21
190 (≈ 66.7 µg/mL)	O=C(Nc1ccccc1C(F)(F)F)N1CCN(c2ccccn2)CC1
427 (≈ 121 µg/mL)	O=C(c1ccccc1)C1CCN(C(=O)c2ccco2)CC1
363 (≈ 171 µg/mL)	N#Cc1ccccc1COc1cc(OCCCN2CCCC2)ccc1C(=O)Nc1cccc(O)c1
513 (≈ 230 µg/mL)	O=C(Nc1cccc(O)c1)c1ccc(OCCCN2CCCC2)cc1OCc1ccccn1
209 (≈ 90.1 µg/mL)	O=C(Nc1cccnc1)c1ccc(OCCCN2CCCC2)cc1OCc1ccccc1
398 (≈ 172 µg/mL)	O=C(Nc1ccccc1)c1ccc(OCCCN2CCCC2)cc1OCc1cccnc1
490 (≈ 330 µg/mL)	CCN(C(=O)Cc1ccc(S(C)(=O)=O)cc1)C1CCN(CC[C@@H](c2ccccc2)N2CCN(S(=O)(=O)CC(F)(F)F)CC2)CC1
457 (≈ 282 µg/mL)	CCN(C(=O)Cc1ccc(S(C)(=O)=O)cc1)C1CCN(CCC(c2ccccc2)C2CCN(S(=O)(=O)CC)CC2)CC1 (stereo not given)
263 (≈ 128 µg/mL)	CO[C@H]1CN(Cc2ccc(C(F)(F)F)cc2)CC[C@H]1N(C)C(=O)Cc1ccc(-n2cnnn2)cc1
190 (≈ 73.6 µg/mL)	C[C@H]1COCCN1c1cc(CS(C)(=O)=O)nc(-c2ccc3[nH]ccc3c2)n1
295 (≈ 160 µg/mL)	O=C(N[C@@H](Cc1ccc(OCCc2cccc(NC3CCCC3)n2)cc1)C(=O)O)c1c(Cl)cccc1Cl
282 (≈ 125 µg/mL)	CC(C)(C)c1csc(N2CCN(C(=O)[C@@H]3CCCC[C@H]3C(=O)NC3(C#N)CC3)CC2)n1
263 (≈ 137 µg/mL)	COc1ccccc1C[C@@H](C(=O)O)N1CCC(CN2CCC(Oc3ccc(Cl)c(Cl)c3)CC2)CC1
204 (≈ 103 µg/mL)	Cc1cc(OC2CCN(CC3CCN([C@@](C)(Cc4ccc(F)cc4)C(=O)O)CC3)CC2)ccc1Cl
417 (≈ 212 µg/mL)	O=C(O)[C@H](Cc1cccc(F)c1)N1CCC(CN2CCC(Oc3ccc(Cl)c(Cl)c3)CC2)CC1

solubility thermodynamic [µM]	Structure (SMILES)
513 (≈ 207 µg/mL)	Cc1cccc2c3c([nH]c12)CCN(C(=O)[C@@H]1CCCC[C@H]1C(=O)NC1(C#N)CC1)C3
302 (≈ 131 µg/mL)	CCOc1cccc2c3c([nH]c12)CCN(C(=O)[C@@H]1CCCC[C@H]1C(=O)NC1(C#N)CC1)C3
457 (≈ 181 µg/mL)	C[C@H](C#N)NC(=O)[C@@H]1CCCC[C@H]1C(=O)N1CCc2[nH]c3ccc(F)cc3c2C1
479 (≈ 195 µg/mL)	N#CC1(NC(=O)[C@@H]2CCCC[C@H]2C(=O)N2CCc3[nH]c4c(F)cccc4c3C2)CC1
389 (≈ 150 µg/mL)	COc1ccc(N2CCN(C(=O)[C@@H]3CCCC[C@H]3C(=O)NCC#N)CC2)cc1
275 (≈ 119 µg/mL)	CS(=O)(=O)c1ccc(N2CCN(C(=O)[C@@H]3CCCC[C@H]3C(=O)NCC#N)CC2)cc1
204 (≈ 94.9 µg/mL)	COc1cc(N2CCN(C(=O)[C@@H]3CCCC[C@H]3C(=O)NC3(C#N)CC3)[C@H](C)C2)ccc1C1CC1
224 (≈ 91.2 µg/mL)	CC(C)c1c(C(=O)NC2C3CC4CC(C3)CC2C4)cnn1-c1ccc(C(=O)O)cc1 (stereo not given)
240 (≈ 147 µg/mL)	COc1cc2ncnc(Nc3cc(NC(=O)c4ccnc(N5CCOCC5)c4)ccc3C)c2cc1OCCN(C(C)C)C(C)C
302 (≈ 186 µg/mL)	COc1cc2c(Nc3ncc(CNS(=O)(=O)c4cccc(F)c4)s3)ncnc2cc1OCCCN1CCC(CO)CC1
282 (≈ 125 µg/mL)	CNC(=O)[C@H]1CCCN1Cc1cc2c(Nc3cccc(Cl)c3F)ncnc2cc1OC
214 (≈ 147 µg/mL)	CC(=O)N1CCN(CC(O)CN2CCN(CCc3c(-c4cc(C)cc(C)c4)[nH]c4sc(C(C)(C)C(=O)N5C6CCC5CC6)cc34)CC2)CC1 (stereo not given)
427 (≈ 276 µg/mL)	Cc1cc(C)cc(-c2[nH]c3sc(C(C)(C)C(=O)N4C5CCC4CC5)cc3c2CCN2CCN(CC(O)CN3CCNCC3)CC2)c1 (stereo not given)
219 (≈ 91.1 µg/mL)	COCCNS(=O)(=O)c1ccc(Nc2nccc(-c3c(C)nc(C)n3C)n2)cc1
363 (≈ 156 µg/mL)	COCCNS(=O)(=O)c1ccc(Nc2nccc(-c3cnc(C)n3C(C)C)n2)cc1
295 (≈ 124 µg/mL)	O=C(Nc1nccs1)[C@H](CC1CCOCC1)c1ccc(S(=O)(=O)C2CC2)cc1
309 (≈ 144 µg/mL)	CN(C)CCCN(C)S(=O)(=O)c1ccc(Nc2nccc(-c3cnc4ccccn34)n2)cc1
